This experiment addresses T1, human apelin receptor (Homo sapiens, UniProt P35414).
T1 construct: expressed in transfected cells
T1 sequence (P35414 1-380): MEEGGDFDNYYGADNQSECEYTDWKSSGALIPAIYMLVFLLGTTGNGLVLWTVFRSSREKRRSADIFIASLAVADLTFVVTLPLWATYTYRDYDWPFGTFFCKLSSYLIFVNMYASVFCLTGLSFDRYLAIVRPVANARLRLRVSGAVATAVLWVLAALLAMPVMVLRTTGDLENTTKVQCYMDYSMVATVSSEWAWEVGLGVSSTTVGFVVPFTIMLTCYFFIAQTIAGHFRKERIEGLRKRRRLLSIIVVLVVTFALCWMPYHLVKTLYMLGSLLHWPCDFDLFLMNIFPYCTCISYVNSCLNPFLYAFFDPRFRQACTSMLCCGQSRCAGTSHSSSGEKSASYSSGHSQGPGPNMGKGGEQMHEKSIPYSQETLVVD
The experiment can be described thus: Determination of agonism on the human apelin receptor by a calcium fluorescence assay (FLIPR). It counts as cell-based. Particulars: HEK293 cells stably transfected with human apelin receptor and Giaq protein, Fluo-4 calcium fluorescence, read-out: EC50 (APJ agonism). The gist of the method:
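Agonist EC50s come from peak intracellular calcium transients recorded by FLIPR Tetra, scaled to the 1 μM apelin-13 maximum per plate. Test system: HEK293 stably transfected with human apelin receptor plus Giaq, Fluo-4-loaded (4 μM, 1 h, 37 °C, pH 7.4 buffer with probenecid); ≥7 concentrations, triplicates.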

The structures appear in SMILES notation.

Regarding `CCC(CC)n1c(Cc2cccs2)nc2cc(C(=O)N[C@H](CCC(=O)O)C(C)C)ccc21` [Example 162, (R)-4-{[1-(1-Ethyl-propyl)-2-thiophen-2-ylmethyl-1H-benzoimidazole-5-carbonyl]-amino}-5-methyl-hexanoic acid], the concentration for a half-maximal effect (EC50) is 1100 nM.

Consider `CCC(CC)n1c(Cc2cccs2)nc2cc(C(=O)N[C@H](Cc3n[nH]c(C(F)(F)F)n3)CC(C)C)ccc21` [Example 476, 1-(1-Ethyl-propyl)-2-thiophen-2-ylmethyl-1H-benzoimidazole-5-carboxylic acid [(S)-3-methyl-1-(5-trifluoromethyl-1H-[1,2,4]triazol-3-ylmethyl)-butyl]-amide], for which the EC50 is 3950 nM.

Take `CCC(CC)n1c(Cc2cccs2)nc2cc(C(=O)NC3(C(=O)O)CCCCC3)ccc21` [Example 24, 1-{[1-(1-Ethyl-propyl)-2-thiophen-2-ylmethyl-1H-benzoimidazole-5-carbonyl]-amino}-cyclohexanecarboxylic acid]: the EC50 is 219 nM.

Consider `CCC(CC)n1c(Cc2ccoc2)nc2cc(C(=O)N[C@H](CC(=O)O)CC(C)C)ccc21` [Example 154, (S)-3-{[1-(1-Ethyl-propyl)-2-furan-3-ylmethyl-1H-benzoimidazole-5-carbonyl]-amino}-5-methyl-hexanoic acid], for which the half-maximal effective concentration (EC50) amounted to 270 nM.

In the case of `CC1CCCCC1n1c(Cc2cccs2)nc2cc(C(=O)N[C@@H](CC3CCCCC3)C(=O)O)ccc21` (single isomer, unassigned) [Example 424], the EC50 was 389 nM.

Take `CCC(CC)n1c(Cc2cccs2)nc2cc(C(=O)N[C@@H](CC(C)C)C(=O)N3CCC(N(C)Cc4ccccc4)CC3)ccc21` [Example 345, 1-(1-Ethyl-propyl)-2-thiophen-2-ylmethyl-1H-benzoimidazole-5-carboxylic acid {(S)-1-[4-(benzyl-methyl-amino)-piperidine-1-carbonyl]-3-methyl-butyl}-amide]: the concentration for a half-maximal effect (EC50) was found to be 1670 nM.

Consider `CCC(CC)n1c(Cc2cccs2)nc2cc(C(=O)NC(CC3CCC(C)(C)CC3)C(=O)O)ccc21` (single isomer, unassigned) [Example 445], for which the EC50 was 8810 nM.

As for `CCCC[C@@H](CO)NC(=O)c1ccc2c(c1)nc(Cc1cccs1)n2C(CC)CC` [Example 199, 1-(1-Ethyl-propyl)-2-thiophen-2-ylmethyl-1H-benzoimidazole-5-carboxylic acid ((S)-1-hydroxymethyl-pentyl)-amide], the EC50 was 710 nM.

With `CC1CCC(NC(=O)c2ccc3c(c2)nc(Cc2cccs2)n3[C@@H]2CCCC[C@H]2C)(C(=O)O)CC1` (stereo partly drawn) [Example 35, 4-Methyl-1-{[1-((1R,2R)-2-methyl-cyclohexyl)-2-thiophen-2-ylmethyl-1H-benzoimidazole-5-carbonyl]-amino}-cyclohexanecarboxylic acid], the EC50 was determined as 291 nM.

Take `CCC(CC)n1c(Cc2cccs2)nc2cc(C(=O)N[C@@H](CO)CCSC)ccc21` [Example 195, 1-(1-Ethyl-propyl)-2-thiophen-2-ylmethyl-1H-benzoimidazole-5-carboxylic acid ((R)-1-hydroxymethyl-3-methylsulfanyl-propyl)-amide]: the EC50 came to 15200 nM.

On to `CCC(CC)n1c(Cc2ccco2)nc2cc(C(=O)NC(CC(=O)O)c3ccccc3)ccc21` (stereo not shown) [Example 42, 3-{[1-(1-Ethyl-propyl)-2-furan-2-ylmethyl-1H-benzoimidazole-5-carbonyl]-amino}-3-phenyl-propionic acid], for which the EC50 came to 1100 nM.

Regarding `CCC(CC)n1c(Cc2cccs2)nc2cc(C(=O)N[C@@H](CC(C)C)C(=O)NC)ccc21` [Example 381, 1-(1-Ethyl-propyl)-2-thiophen-2-ylmethyl-1H-benzoimidazole-5-carboxylic acid ((S)-3-methyl-1-methylcarbamoyl-butyl)-amide], the EC50 amounted to 970 nM.

`CCC(CC)n1c(Cc2cccs2)nc2cc(C(=O)N[C@@H](CC(C)C)C(=O)NCC3CCN(CCc4ccccc4)C3)ccc21` (stereo partly drawn) [Example 291, 1-(1-Ethyl-propyl)-2-thiophen-2-ylmethyl-1H-benzoimidazole-5-carboxylic acid {(S)-3-methyl-1-[(1-phenethyl-pyrrolidin-3-ylmethyl)-carbamoyl]-butyl}-amide]: the concentration for a half-maximal effect (EC50) was determined as 408 nM.

For the molecule `CCC(CC)n1c(Cc2cccs2)nc2cc(C(=O)NC(CC(C)C)C(C)(C)C(=O)O)ccc21` (stereo not shown) [Example 62, 3-{[1-(1-Ethyl-propyl)-2-thiophen-2-ylmethyl-1H-benzoimidazole-5-carbonyl]-amino}-2,2,5-trimethyl-hexanoic acid], the EC50 turned out to be 193 nM.

Regarding `CCCC[C@H](NC(=O)c1ccc2c(c1)nc(Cc1cccs1)n2C1CCCCC1C)C(=O)O` (single isomer, unassigned) [Example 420], the EC50 worked out at 14 nM.

Regarding `CCC(CC)n1c(Cc2cccs2)nc2cc(C(=O)N[C@H](CO)CCSC)ccc21` [Example 188, 1-(1-Ethyl-propyl)-2-thiophen-2-ylmethyl-1H-benzoimidazole-5-carboxylic acid ((S)-1-hydroxymethyl-3-methylsulfanyl-propyl)-amide], the 50% effective concentration (EC50) was found to be 4520 nM.

For `CCC(CC)n1c(Cc2cccs2)nc2cc(C(=O)N[C@@H](CC(C)C)C(=O)NC3CCN(CC)CC3)ccc21` [Example 340, 1-(1-Ethyl-propyl)-2-thiophen-2-ylmethyl-1H-benzoimidazole-5-carboxylic acid [(S)-1-(1-ethyl-piperidin-4-ylcarbamoyl)-3-methyl-butyl]-amide], the EC50 was determined as 185 nM.

In the case of `CCC(CC)n1c(Cc2cccs2)nc2cc(C(=O)N[C@H](c3nnc(COC)[nH]3)C(C)C)ccc21` [Example 482, 1-(1-Ethyl-propyl)-2-thiophen-2-ylmethyl-1H-benzoimidazole-5-carboxylic acid [(S)-1-(5-methoxymethyl-2H-[1,2,4]triazol-3-yl)-2-methyl-propyl]-amide], the EC50 worked out at 15700 nM.

Consider `CCC(CC)n1c(Cc2cccs2)nc2cc(C(=O)N[C@@H](CC(C)C)C(=O)NCC3CCCN(C)C3)ccc21` (stereo partly drawn) [Example 297, 1-(1-Ethyl-propyl)-2-thiophen-2-ylmethyl-1H-benzoimidazole-5-carboxylic acid {(S)-3-methyl-1-[(1-methyl-piperidin-3-ylmethyl)-carbamoyl]-butyl}-amide], for which the concentration giving a half-maximal response (EC50) is 390 nM.

With `CCCC[C@H](NC(=O)c1ccc2c(c1)nc(Cc1cccs1)n2C1CCCCC1C)C(=O)O` (single isomer, unassigned) [Example 422], the concentration giving a half-maximal response (EC50) was 1860 nM.

`CCCC[C@H](CO)NC(=O)c1ccc2c(c1)nc(Cc1cccs1)n2C(CC)CC` [Example 198, 1-(1-Ethyl-propyl)-2-thiophen-2-ylmethyl-1H-benzoimidazole-5-carboxylic acid ((R)-1-hydroxymethyl-pentyl)-amide]: the EC50 was 8880 nM.

Turning to `CCC(CC)n1c(Cc2cccs2)nc2cc(C(=O)N[C@@H](CC(C)C)C(=O)N(C)CCCC3CCCO3)ccc21` (stereo partly drawn) [Example 392, 1-(1-Ethyl-propyl)-2-thiophen-2-ylmethyl-1H-benzoimidazole-5-carboxylic acid ((S)-3-methyl-1-{methyl-[3-(tetrahydro-furan-2-yl)-propyl]-carbamoyl}-butyl)-amide], the concentration for a half-maximal effect (EC50) was 1380 nM.

As to `CCC(CC)n1c(Cc2cccs2)nc2cc(C(=O)N[C@@H](CC(C)C)C(=O)N3CCN(C4CCCC4)CC3)ccc21` [Example 321, 1-(1-Ethyl-propyl)-2-thiophen-2-ylmethyl-1H-benzoimidazole-5-carboxylic acid [(S)-1-(4-cyclopentyl-piperazine-1-carbonyl)-3-methyl-butyl]-amide], the EC50 is 1520 nM.

Regarding `CCC(CC)n1c(Cc2cccs2)nc2cc(C(=O)N[C@@H](CC(C)C)C(=O)Nc3ccc(F)cc3)ccc21` [Example 228, 1-(1-Ethyl-propyl)-2-thiophen-2-ylmethyl-1H-benzoimidazole-5-carboxylic acid [(S)-1-(4-fluoro-phenylcarbamoyl)-3-methyl-butyl]-amide], the EC50 amounted to 8500 nM.

As for `CCC(CC)n1c(Cc2cccs2)nc2cc(C(=O)N[C@@H](CC(C)C)C(=O)NC3CCCC3)ccc21` [Example 237, 1-(1-Ethyl-propyl)-2-thiophen-2-ylmethyl-1H-benzoimidazole-5-carboxylic acid ((S)-1-cyclopentylcarbamoyl-3-methyl-butyl)-amide], the 50% effective concentration (EC50) amounted to 2480 nM.

In the case of `CCC(CC)n1c(Cc2ccco2)nc2cc(C(=O)NC(C)(Cc3ccccc3)C(=O)O)ccc21` (stereo not shown) [Example 2, 2-{[1-(1-Ethyl-propyl)-2-furan-2-ylmethyl-1H-benzoimidazole-5-carbonyl]-amino}-2-methyl-3-phenyl-propionic acid], the concentration giving a half-maximal response (EC50) is 20100 nM.

As to `CCCC(CC(=O)O)NC(=O)c1ccc2c(c1)nc(Cc1cccs1)n2C(CC)CC` (stereo not shown) [Example 155, 3-{[1-(1-Ethyl-propyl)-2-thiophen-2-ylmethyl-1H-benzoimidazole-5-carbonyl]-amino}-hexanoic acid], the concentration for a half-maximal effect (EC50) came out at 500 nM.

Turning to `CCC(CC)n1c(Cc2cccs2)nc2cc(C(=O)N[C@@H](CC(C)C)C(=O)NCc3nccs3)ccc21` [Example 250, 1-(1-Ethyl-propyl)-2-thiophen-2-ylmethyl-1H-benzoimidazole-5-carboxylic acid {(S)-3-methyl-1-[(thiazol-2-ylmethyl)-carbamoyl]-butyl}-amide], the EC50 amounted to 520 nM.
